The values below come from patent US4205163A, “Tylosin derivatives” (Sanraku-Ocean Co., Ltd., priority 1977, dated 1980).

Each structure is given as a SMILES string. Converted amounts (≈) assume the structure as drawn.

Data set [1] concerns Staphylococcus aureus MS-9931. The data set can be described thus: antimicrobial activity, broth dilution method. Type of data set: cell-based. As to conditions: MS9931; Staphylococcus aureus MS-9931, drug-resistant clinical isolate; read-out: minimum inhibitory concentration (MIC). The method, boiled down:
(§1)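 Broth dilution MICs were measured against pathogenic bacteria, including clinically isolated drug-resistant strains. Staphylococcus aureus MS-8710 is resistant to tylosin, penicillin, tetracycline, erythromycin and leucomycin, and Streptococcus pyogenes to tylosin, erythromycin, oleandomycin and leucomycin.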
A general note: Broth dilution looks for growth in wells or tubes with falling amounts of substance.

Data set [2] has as its system Staphylococcus aureus MS-9937. In words: antimicrobial activity, broth dilution method. The data set is classed as cell-based. The conditions noted are these: MS9937; Staphylococcus aureus MS-9937, drug-resistant clinical isolate; read-out: minimum inhibitory concentration (MIC). The method, boiled down: as §1
For data set [3], the system named is Streptococcus pyogenes MH-771. In words: antimicrobial activity, broth dilution method. As to conditions: Streptococcus pyogenes, MH771, Streptococcus pyogenes MH-771, drug-resistant clinical isolate; read-out: minimum inhibitory concentration (MIC). The data set is classed as cell-based. The method, boiled down:
as §1

For data set [4], the system named is Mycoplasma gallisepticum KP-13. The data set can be described thus: antibacterial activity against Mycoplasma. The data set is classed as cell-based. The conditions noted are these: Mycoplasmoides gallisepticum, KP13; strain KP-13; Eiken PPLO Medium; read-out: MIC. An excerpt:
(§2) Furthermore the new antibiotics according to the present invention also show antimicrobial activity on Mycoplasma. In particular, it is noteworthy that they have much higher antimicrobial activity than tylosin on Mycoplasma that is resistant to macrolide antibiotics. Tab.
(§3) **Medium (Eiken PPLO Medium)

Data set [5] deals with Mycoplasma gallisepticum A-72. In words: antibacterial activity against Mycoplasma. The conditions noted are these: Mycoplasmoides gallisepticum, A72; strain A-72, macrolide resistant; Eiken PPLO Medium. The data set is classed as cell-based.
Description: as §2
(§4) *Macrolide resistant strain
as §3

In data set [6] the test system is Mycoplasma gallisepticum E-11. The data set can be described thus: antibacterial activity against Mycoplasma. The data set is classed as cell-based. The conditions noted are these: Mycoplasmoides gallisepticum, E11; strain E-11, macrolide resistant; Eiken PPLO Medium; read-out: MIC.
Description: as §2, §4, §3

Data set [7] deals with Mycoplasma gallisepticum E-5. In words: antibacterial activity against Mycoplasma. Type of data set: cell-based. As to conditions: Mycoplasmoides gallisepticum, E5; strain E-5, macrolide resistant; Eiken PPLO Medium; read-out: MIC.
Description: as §2, §4, §3

Data set [8] is described as follows: toxicity in chickens, mixed with feed for a month. Type of data set: in vivo. As to conditions: mixed with feed at 0.3%. The text has this: 3-Acetyl-4"-D-(α-hydroxyphenylacetyl)tylosin, 4"-phenylthioacetyltylosin and 4"-benzenesulfonylacetyltylosin, selected as the representative compounds according to the present invention, were mixed with feed at a ratio of 0.3%, respectively and given to chickens for a month.

A short description of the next data set: in vivo. The conditions noted are these: mouse, po, 100 mg/kg.

Description for in vivo: The new antibiotics according to the present invention were each orally administered to mice at a dose of 100 mg/kg. Each blood level was then measured and compared with those of tylosin and 3-acetyltylosin.

`CCC1OC(=O)CC(OC(C)=O)C(C)C(OC2OC(C)C(OC3CC(C)(O)C(OC(=O)C(O)c4ccccc4)C(C)O3)C(N(C)C)C2O)C(CC=O)CC(C)C(=O)C=CC(C)=CC1COC1OC(C)C(O)C(OC)C1OC` [Compound 17, 3-acetyl-4"-D-(α-hydroxyphenylacetyl)tylosin]: the MIC in data set [1] was 12.5 µg/mL (≈ 11.4 µM); in data set [2] it was 12.5 µg/mL (≈ 11.4 µM); in data set [3], 6.25 µg/mL (≈ 5.72 µM); in data set [4], 0.157 µg/mL (≈ 0.144 µM); in data set [5] it was 0.313 µg/mL (≈ 0.287 µM); in data set [6], 0.625 µg/mL (≈ 0.572 µM). The MIC in data set [7] turned out to be 0.625 µg/mL (≈ 0.572 µM). Further, the toxicity entry in data set [8] is given as “No toxicity was observed”. In the data set “in vivo”, this compound came in with a concentration at 1 h of 10000 ng/mL. This compound also displayed a concentration at 3 h in the data set “in vivo” of 2000 ng/mL.
